Test results reported in ChEMBL document CHEMBL2396517, “Design, synthesis and biological evaluation of novel aminothiazoles as antiviral compounds acting against human rhinovirus” (Bioorg Med Chem Lett, 2013).

What was measured:
physchem = details: buffer, pH 7.4
[1] = Permeability across apical to basolateral side in human Caco2 cells; assay type: ADME, cell-based; details: Caco-2, read-out: permeability
[2] = Total clearance in rat at 5 mg/kg, po and 2 mg/kg, iv; assay type: ADME, organism-based; details: in vivo
[3] = AUC in rat at 5 mg/kg, po and 2 mg/kg, iv; assay type: ADME, organism-based; details: plasma
[4] = Half life in rat at 5 mg/kg, po and 2 mg/kg, iv; assay type: ADME, organism-based; details: in vivo
[5] = Cmax in rat at 5 mg/kg, po and 2 mg/kg, iv; assay type: ADME, organism-based; details: in vivo
[6] = (§1) Oral bioavailability in rat at 5 mg/kg; assay type: ADME, organism-based; details: in vivo
Rattus norvegicus = assay: as §1; assay type: ADME, organism-based; details: in vivo
[7] = AUC in CD1 mouse at 5 mg/kg; assay type: ADME, organism-based; design: dose 5 mg/kg; details: plasma
[8] = Cmax in CD1 mouse at 250 mg/kg; assay type: ADME, organism-based; design: dose 250 mg/kg; details: in vivo
[9] = Total clearance in CD1 mouse at 2 mg/kg, iv; assay type: ADME, organism-based; design: dose 2 mg/kg, route intravenous; details: in vivo
[10] = Cmax in CD1 mouse at 5 mg/kg; assay type: ADME, organism-based; design: dose 5 mg/kg; details: in vivo
[11] = AUC in CD1 mouse at 50 mg/kg; assay type: ADME, organism-based; design: dose 50 mg/kg; details: plasma
[12] = Cmax in CD1 mouse at 50 mg/kg; assay type: ADME, organism-based; design: dose 50 mg/kg; details: in vivo
[13] = AUC in CD1 mouse at 250 mg/kg; assay type: ADME, organism-based; design: dose 250 mg/kg; details: plasma

With `Nc1ccc(-c2cnc(NC(=O)CN(Cc3ccccc3)C(=O)c3ccncc3)s2)cc1` the logD (physchem) was 2.9 and the Papp A→B [1] was 11.3 ×10⁻⁶ cm/s.
With `Nc1ccc(-c2cnc(NC(=O)CN(Cc3ccccc3)C(=O)c3ccncc3)s2)cn1` the logD (physchem) was 2.6 and the Papp A→B [1] was 2.3 ×10⁻⁶ cm/s.
For `Cc1nc(NC(=O)CN(Cc2ccccc2)C(=O)c2ccncc2)sc1-c1ccc(N)nc1`, the logD (physchem) was 2.8 and the Papp A→B [1] was 2.1 ×10⁻⁶ cm/s.
`Cc1nc(NC(=O)CN2C(=O)OC[C@H]2C(C)C)sc1-c1ccc(N)cc1` showed a logD (physchem) of 2.5 and a Papp A→B [1] of 19 ×10⁻⁶ cm/s.
`CC(=O)N1[C@@H](c2ccccc2)CC[C@H]1C(=O)Nc1ncc(-c2ccc(N)cc2)s1` showed a logD (physchem) of 3.2 and a Papp A→B [1] of 21 ×10⁻⁶ cm/s.
Work on `Cc1ccc(C(=O)N(CC(=O)Nc2ncc(-c3ccc(N)cc3)s2)Cc2ccccc2)cn1` yielded a Papp A→B [1] of 17 ×10⁻⁶ cm/s.
`CO[C@H]1CC[C@@H](C(=O)Nc2nc(C)c(-c3ccc(N)nc3)s2)CC1` gave a clearance [2] of 70 mL/min/kg, an AUC [3] of 2.65 µM·h and a half-life [4] of 0.38 h. The logD (physchem) was 2.8, the Cmax [5] was 1.5 µM and the Papp A→B [1] was 18 ×10⁻⁶ cm/s. The bioavailability [6] was 77%.
For `Cc1nc(NC(=O)[C@H]2CC[C@@H](C(F)(F)F)CC2)sc1-c1ccc(N)nc1`, the logD (physchem) was 3.8 and the Papp A→B [1] was 22 ×10⁻⁶ cm/s.
Molecule `Cc1nc(NC(=O)C2(C)CCCCC2)sc1-c1ccc(N)nc1` has a logD (physchem) of 3.8 and a Papp A→B [1] of 20 ×10⁻⁶ cm/s.
Molecule `Cc1nc(NC(=O)C(C)CC(F)(F)F)sc1-c1ccc(N)nc1` (stereo not given) has a clearance [2] of 40 mL/min/kg, an AUC [3] of 9.7 µM·h and a half-life [4] of 1.7 h. For the same molecule, the logD (physchem) was 2.9, the Cmax [5] was 1.9 µM and the Papp A→B [1] was 20 ×10⁻⁶ cm/s. It also gave an F (Rattus norvegicus) of 160%.
`Cc1nc(NC(=O)Cc2nc(-c3ccccc3)c(C)o2)sc1-c1ccc(N)nc1` gave a logD (physchem) of 4 and a Papp A→B [1] of 26 ×10⁻⁶ cm/s.
With `Cc1nc(NC(=O)[C@H](C)CC(F)(F)F)sc1-c1ccc(N)nc1` the AUC [7] was 2.7 µM·h, the Cmax [8] was 55 µM and the clearance [9] was 91 mL/min/kg. The Cmax [10] was 1.8 µM, the AUC [11] was 44 µM·h and the logD (physchem) was 3.2. It also gave a Cmax [12] of 18 µM, a Papp A→B [1] of 44 ×10⁻⁶ cm/s and an AUC [13] of 176 µM·h.
Work on `Cc1nc(NC(=O)[C@@H](C)CC(F)(F)F)sc1-c1ccc(N)nc1` yielded an AUC [7] of 4 µM·h, a Cmax [8] of 26 µM and a clearance [9] of 71 mL/min/kg. It also gave a Cmax [10] of 2.2 µM, an AUC [11] of 38 µM·h and a logD (physchem) of 3.2. It also gave a Cmax [12] of 20 µM, a Papp A→B [1] of 42 ×10⁻⁶ cm/s and an AUC [13] of 12 µM·h.
Work on `Cc1nc(NC(=O)C(C)(C)CC(F)(F)F)sc1-c1ccc(N)nc1` yielded an AUC [7] of 208 µM·h, a Cmax [8] of 59 µM and a clearance [9] of 58 mL/min/kg. The Cmax [10] was 0.5 µM, the AUC [11] was 514 µM·h and the logD (physchem) was 3.4. For the same molecule, the Cmax [12] was 12 µM and the Papp A→B [1] was 41 ×10⁻⁶ cm/s.
Molecule `COc1ccc(-c2c(C)nn3c(NCCN4CCOCC4)cc(C)nc23)cc1OC` has a clearance [2] of 18 mL/min/kg, an AUC [7] of 3.6 µM·h and a Cmax [8] of 52 µM. The Cmax [10] was 1.9 µM, the AUC [3] was 10 µM·h and the AUC [11] was 45 µM·h. The half-life [4] was 2.8 h, the logD (physchem) was 2.7 and the Cmax [12] was 15 µM. For the same molecule, the Cmax [5] was 2 µM, the Papp A→B [1] was 11 ×10⁻⁶ cm/s and the AUC [13] was 307 µM·h. It also gave a bioavailability [6] of 91%.
